What was measured:
MPV17^−/− mice = test: qPCR measurements of mtDNA copy number in the liver of MPV17−/− mice; assay type: in vivo, mouse; settings: treatment alone; summary statement
Protocol: • 2A. 2 litters from MPV17^−/− mouse (KO×KO) breeding pairs were used in the study. The experimental groups were set up as follows: • 1. - - - KO untreated (n=1) • 2. - - - KO treated with 109.35 mg/kg MT102C+104.2 mg/kg MT102G (n=3) • 3. - - - KO treated with 163.87 mg/kg MT103C+150.56 mg/kg MT103G (n=3) • 4. - - - KO treated with 75 mg/kg dC and 75 mg/kg dG (purchased from Sigma) (n=3) • 5. - - - KO treated with 144.9 mg/kg MT101G (n=2)
Treatment was started at day 7 and terminated at day 30. The treatment was performed by delivery into the oral cavity throughout the study. […] At day 30, animals were sacrificed and tissues collected. Liver, muscle, kidney, gut, heart and brain were flash frozen in liquid nitrogen. Blood was collected by heart puncture and plasma fractions stored at −80° C.
Results of qPCR measurements of mtDNA copy number in the liver tissue of treated and untreated mice are shown FIG. 7. • 2B. In order to compare results, WT (n=5), KO untreated (n=4) and KO treated with 20% MT101 (n=4) and 20% MT104 (n=4) from previous experiments were also included in the analysis. • 2C. Three other litters from KO x KO breeding pairs were used in a further study of nucleoside prodrug supplementation: • 1.—Litter 2 (L2): Born on Feb. 9, 2020 • 2.—Litter 3 (L3): Born on May 9, 2020 • 3.—Litter 4 (L4): Born on Aug. 9, 2020 […]
mtDNA copy number in liver was analyzed by RT-qPCR. […]

[1] = test system: fibroblasts from patients with DGUOK mutations; settings: cited from earlier work
dGK mutant fish = settings: nucleoside supplementation (Munro, et al. 2019); cited from earlier work

Compound: Nc1nc2c(ncn2[C@H]2C[C@H](O)[C@@H](CO)O2)c(=O)[nH]1 [dG, 2′-deoxyguanosine]
- mtDNA copy numbers in dGK or MPV17 deficiency disorders (MPV17^−/− mice): sufficient to increase mtDNA copy numbers
- mtDNA depletion after quiescence, previously demonstrated ([1]; 50 μM in cell culture medium): sufficient to prevent this depletion
- mtDNA copy number ([1]; 50 μm added into culture broth (Camara, et al. 2014)): sufficient to increase the mtDNA copy number
- mtDNA levels in dGK mutant fish (dGK mutant fish): decreased mtDNA levels

— patent publication US20250049836A1, “PRODRUGS OF DEOXYNUCLEOSIDES FOR TREATMENT OF MITOCHONDRIAL DISEASES CAUSED BY UNBALANCED NUCLEOTIDE POOLS” (UCB Biosciences, Inc., priority 2021, published 2025)
